According to patent US7838230B2 (priority 2004, dated 2010):

Legend:
topoisomerase IV [1] = molecular target: T1, topoisomerase IV (Escherichia coli, UniProt P0AFI2+P20083); experiment: Topoisomerase IV relaxation, gel electrophoresis assay; assay type: biochemical
topoisomerase IV [2] = molecular target: T1, topoisomerase IV; experiment: Topoisomerase IV relaxation, microplate assay; assay type: biochemical

T1 sequence (P20083 whole entry): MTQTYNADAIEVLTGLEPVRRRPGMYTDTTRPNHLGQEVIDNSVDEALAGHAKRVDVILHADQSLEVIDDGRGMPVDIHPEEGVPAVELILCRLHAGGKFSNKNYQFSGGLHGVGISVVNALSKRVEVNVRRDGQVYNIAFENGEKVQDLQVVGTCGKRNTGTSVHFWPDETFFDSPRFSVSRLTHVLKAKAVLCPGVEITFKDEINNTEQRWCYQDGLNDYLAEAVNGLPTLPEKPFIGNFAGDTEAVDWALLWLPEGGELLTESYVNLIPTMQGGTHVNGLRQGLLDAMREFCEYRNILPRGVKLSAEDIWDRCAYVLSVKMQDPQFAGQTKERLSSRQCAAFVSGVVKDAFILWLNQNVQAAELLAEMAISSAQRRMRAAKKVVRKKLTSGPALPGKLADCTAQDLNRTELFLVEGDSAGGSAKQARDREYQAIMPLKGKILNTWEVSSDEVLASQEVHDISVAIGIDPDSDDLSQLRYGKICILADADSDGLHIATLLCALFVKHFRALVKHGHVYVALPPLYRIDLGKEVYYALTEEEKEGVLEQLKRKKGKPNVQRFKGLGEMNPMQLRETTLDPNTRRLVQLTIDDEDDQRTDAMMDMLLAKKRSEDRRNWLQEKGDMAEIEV
T1 sequence (P0AFI2 whole entry): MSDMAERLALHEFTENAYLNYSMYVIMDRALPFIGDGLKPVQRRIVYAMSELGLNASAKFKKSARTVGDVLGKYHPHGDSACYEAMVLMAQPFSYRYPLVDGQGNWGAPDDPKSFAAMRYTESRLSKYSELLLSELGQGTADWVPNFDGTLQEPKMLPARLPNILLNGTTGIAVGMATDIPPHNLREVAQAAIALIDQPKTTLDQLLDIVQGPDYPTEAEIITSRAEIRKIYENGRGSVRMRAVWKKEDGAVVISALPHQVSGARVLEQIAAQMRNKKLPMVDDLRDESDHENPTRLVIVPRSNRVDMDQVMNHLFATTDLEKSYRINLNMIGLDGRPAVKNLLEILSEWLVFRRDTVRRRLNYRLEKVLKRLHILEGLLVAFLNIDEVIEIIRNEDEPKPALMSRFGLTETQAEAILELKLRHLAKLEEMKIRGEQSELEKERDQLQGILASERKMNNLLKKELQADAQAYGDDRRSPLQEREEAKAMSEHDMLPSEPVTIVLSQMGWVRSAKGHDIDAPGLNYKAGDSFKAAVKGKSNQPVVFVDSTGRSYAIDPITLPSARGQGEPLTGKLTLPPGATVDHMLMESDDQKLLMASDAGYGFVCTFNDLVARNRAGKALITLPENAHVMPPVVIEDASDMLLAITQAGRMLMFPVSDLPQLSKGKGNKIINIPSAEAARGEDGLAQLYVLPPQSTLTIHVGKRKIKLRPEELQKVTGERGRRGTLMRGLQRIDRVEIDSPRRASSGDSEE

| SMILES | IC50 (topoisomerase IV [1]; supercoiled pNO1 substrate, gel assay, read-out: Topo IV Relaxation IC50 Gel assay) [µM] | IC50 (topoisomerase IV [2]; supercoiled pNO1 substrate, plate assay, read-out: Topo IV Relaxation IC50 Plate assay) [µM] | IC50 (topoisomerase IV [1]) [µM] | IC50 (topoisomerase IV [2]) [µM] |
| --- | --- | --- | --- | --- |
| CO[C@@H]1[C@@H](OC(=O)c2ccc(C)[nH]2)[C@@H](O)[C@H](Oc2ccc3c(O)c(NC(=O)c4ccc(O)c(CC=C(C)C)c4)c(=O)oc3c2Cl)OC1(C)C [Chlorbiocin] | 0.14 | 0.32 |  |  |
| CCn1cc(C(=O)O)c(=O)c2ccc(C)nc21 [Naladixic acid] |  |  | 36.3 | 88.4 |
